How the values were obtained:
Experiment in all cases: IC50 for competition of protein binding to Kinobeads
Settings in all cases: assay detail: Kinobeads competition in P. falciparum blood-stage lysate
[1] = molecular target: UniProt C0H4M6
[2] = molecular target: UniProt C0H5L6
[3] = molecular target: UniProt C6KSV2
[4] = molecular target: UniProt C6KSW5
[5] = molecular target: UniProt C6KSY0
[6] = molecular target: UniProt C6KTB3
[7] = molecular target: UniProt O77344
[8] = molecular target: UniProt O77375
[9] = molecular target: UniProt P50250
[10] = molecular target: UniProt Q76NL8
[11] = molecular target: UniProt Q7KQL3
[12] = molecular target: UniProt Q7KQL5
[13] = molecular target: UniProt Q8I1V0
[14] = molecular target: UniProt Q8I249
[15] = molecular target: UniProt Q8I298
[16] = molecular target: UniProt Q8I2F2
[17] = molecular target: UniProt Q8I2S6
[18] = molecular target: UniProt Q8I348
[19] = molecular target: UniProt Q8I3J5
[20] = molecular target: UniProt Q8I3K7
[21] = molecular target: UniProt Q8I3Q6
[22] = molecular target: UniProt Q8I487
[23] = molecular target: UniProt Q8I527
[24] = molecular target: UniProt Q8I5F4
[25] = molecular target: UniProt Q8I5L6
[26] = molecular target: UniProt Q8I5Q6
[27] = molecular target: UniProt Q8IAR6
[28] = molecular target: UniProt Q8IAU0
[29] = molecular target: UniProt Q8IAX5
[30] = molecular target: UniProt Q8IAY9
[31] = molecular target: UniProt Q8IB72
[32] = molecular target: UniProt Q8IBN5
[33] = molecular target: UniProt Q8IDF6
[34] = molecular target: UniProt Q8IDF9
[35] = molecular target: UniProt Q8IDG3
[36] = molecular target: UniProt Q8IDM3
[37] = molecular target: UniProt Q8IDQ9
[38] = molecular target: UniProt Q8IDV5
[39] = molecular target: UniProt Q8IDY6
[40] = molecular target: UniProt Q8IDZ9
[41] = molecular target: UniProt Q8IE43
[42] = molecular target: UniProt Q8IFN9
[43] = molecular target: UniProt Q8II92
[44] = molecular target: UniProt Q8IIC0
[45] = molecular target: UniProt Q8IIF4
[46] = molecular target: UniProt Q8IIG6
[47] = molecular target: UniProt Q8IIK2
[48] = molecular target: UniProt Q8IJ74
[49] = molecular target: UniProt Q8IKI9
[50] = molecular target: UniProt Q8IL08
[51] = molecular target: UniProt Q8ILQ7
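Note: native unpurified kinases from lysate captured on beads bearing immobilized kinase inhibitors, with bead-bound kinases quantified by mass spectrometry across compound doses.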

Chain of UniProt Q76NL8 (Q76NL8 whole entry): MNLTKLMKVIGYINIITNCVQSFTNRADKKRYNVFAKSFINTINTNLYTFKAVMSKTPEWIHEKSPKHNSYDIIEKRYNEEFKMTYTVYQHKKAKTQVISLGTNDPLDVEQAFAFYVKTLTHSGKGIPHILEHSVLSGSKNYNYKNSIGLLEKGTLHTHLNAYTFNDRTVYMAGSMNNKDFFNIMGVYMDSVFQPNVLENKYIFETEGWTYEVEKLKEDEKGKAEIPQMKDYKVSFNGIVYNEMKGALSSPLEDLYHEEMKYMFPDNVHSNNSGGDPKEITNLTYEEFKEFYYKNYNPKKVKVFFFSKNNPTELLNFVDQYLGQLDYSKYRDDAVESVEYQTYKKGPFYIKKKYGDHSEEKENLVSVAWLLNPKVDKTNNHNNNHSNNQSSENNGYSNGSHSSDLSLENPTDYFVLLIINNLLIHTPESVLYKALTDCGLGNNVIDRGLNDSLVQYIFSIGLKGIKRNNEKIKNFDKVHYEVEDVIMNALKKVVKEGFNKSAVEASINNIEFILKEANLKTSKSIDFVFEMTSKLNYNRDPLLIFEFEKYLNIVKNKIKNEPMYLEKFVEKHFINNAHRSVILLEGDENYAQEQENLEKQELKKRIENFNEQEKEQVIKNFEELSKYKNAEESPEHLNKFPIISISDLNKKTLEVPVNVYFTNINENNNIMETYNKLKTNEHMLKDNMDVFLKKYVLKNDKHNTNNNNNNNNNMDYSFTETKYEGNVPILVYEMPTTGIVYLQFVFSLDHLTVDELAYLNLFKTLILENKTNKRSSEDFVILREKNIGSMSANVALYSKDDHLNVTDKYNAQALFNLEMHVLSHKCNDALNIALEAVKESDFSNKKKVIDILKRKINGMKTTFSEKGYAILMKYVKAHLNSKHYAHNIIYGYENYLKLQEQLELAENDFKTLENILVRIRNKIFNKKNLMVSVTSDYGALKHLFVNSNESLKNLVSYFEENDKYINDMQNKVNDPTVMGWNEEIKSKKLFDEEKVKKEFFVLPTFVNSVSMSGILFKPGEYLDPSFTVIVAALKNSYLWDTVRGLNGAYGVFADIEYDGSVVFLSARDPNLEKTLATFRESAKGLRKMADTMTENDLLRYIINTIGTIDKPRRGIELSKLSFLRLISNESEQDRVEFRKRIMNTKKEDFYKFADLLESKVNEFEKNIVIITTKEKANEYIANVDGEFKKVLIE
Chain of UniProt Q8IDQ9 (Q8IDQ9 whole entry): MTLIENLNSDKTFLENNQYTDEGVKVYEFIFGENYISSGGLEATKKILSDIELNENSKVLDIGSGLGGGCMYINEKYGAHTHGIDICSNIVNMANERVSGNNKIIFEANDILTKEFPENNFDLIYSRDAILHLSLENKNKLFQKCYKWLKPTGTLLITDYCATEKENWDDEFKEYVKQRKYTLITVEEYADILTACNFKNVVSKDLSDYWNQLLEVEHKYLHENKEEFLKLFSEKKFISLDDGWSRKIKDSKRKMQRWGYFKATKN
Chain of UniProt P50250 (P50250 whole entry): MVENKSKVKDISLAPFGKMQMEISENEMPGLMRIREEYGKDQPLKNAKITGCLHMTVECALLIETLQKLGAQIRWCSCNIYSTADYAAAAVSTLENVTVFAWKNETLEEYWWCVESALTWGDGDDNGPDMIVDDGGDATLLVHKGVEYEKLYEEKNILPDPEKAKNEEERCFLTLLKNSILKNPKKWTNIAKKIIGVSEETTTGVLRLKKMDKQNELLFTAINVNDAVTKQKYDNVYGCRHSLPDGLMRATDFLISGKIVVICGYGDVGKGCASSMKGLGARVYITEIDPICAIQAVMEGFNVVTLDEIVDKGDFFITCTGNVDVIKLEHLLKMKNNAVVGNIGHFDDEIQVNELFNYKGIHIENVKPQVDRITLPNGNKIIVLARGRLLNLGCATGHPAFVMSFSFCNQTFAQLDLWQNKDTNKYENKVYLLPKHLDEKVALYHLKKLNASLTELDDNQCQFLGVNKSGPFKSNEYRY
Chain of UniProt Q7KQL5 (Q7KQL5 whole entry): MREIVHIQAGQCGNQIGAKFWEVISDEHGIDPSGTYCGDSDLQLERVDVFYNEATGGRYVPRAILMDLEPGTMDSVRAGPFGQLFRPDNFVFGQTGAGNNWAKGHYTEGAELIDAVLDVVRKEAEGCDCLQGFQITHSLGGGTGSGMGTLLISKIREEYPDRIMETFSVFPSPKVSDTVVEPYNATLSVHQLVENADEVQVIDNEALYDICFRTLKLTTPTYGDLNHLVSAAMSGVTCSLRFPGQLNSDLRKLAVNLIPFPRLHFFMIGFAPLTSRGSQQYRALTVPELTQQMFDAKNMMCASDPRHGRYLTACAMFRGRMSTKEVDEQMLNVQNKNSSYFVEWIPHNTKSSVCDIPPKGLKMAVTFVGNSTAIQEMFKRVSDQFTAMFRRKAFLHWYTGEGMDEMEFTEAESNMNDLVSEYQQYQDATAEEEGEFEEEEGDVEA
Chain of UniProt Q7KQL3 (Q7KQL3 whole entry): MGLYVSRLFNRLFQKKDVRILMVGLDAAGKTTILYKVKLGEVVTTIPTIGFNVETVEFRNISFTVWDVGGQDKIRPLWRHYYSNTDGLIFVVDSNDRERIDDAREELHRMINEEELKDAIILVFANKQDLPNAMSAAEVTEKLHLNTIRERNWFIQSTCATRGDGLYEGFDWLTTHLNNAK
Chain of UniProt Q8ILQ7 (Q8ILQ7 whole entry): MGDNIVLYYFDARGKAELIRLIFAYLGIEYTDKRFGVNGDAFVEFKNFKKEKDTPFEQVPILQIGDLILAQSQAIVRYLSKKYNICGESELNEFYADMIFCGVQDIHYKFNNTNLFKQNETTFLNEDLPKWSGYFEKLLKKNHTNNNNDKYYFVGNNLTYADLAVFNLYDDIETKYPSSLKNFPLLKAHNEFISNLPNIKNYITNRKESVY
Chain of UniProt Q8IDF6 (Q8IDF6 whole entry): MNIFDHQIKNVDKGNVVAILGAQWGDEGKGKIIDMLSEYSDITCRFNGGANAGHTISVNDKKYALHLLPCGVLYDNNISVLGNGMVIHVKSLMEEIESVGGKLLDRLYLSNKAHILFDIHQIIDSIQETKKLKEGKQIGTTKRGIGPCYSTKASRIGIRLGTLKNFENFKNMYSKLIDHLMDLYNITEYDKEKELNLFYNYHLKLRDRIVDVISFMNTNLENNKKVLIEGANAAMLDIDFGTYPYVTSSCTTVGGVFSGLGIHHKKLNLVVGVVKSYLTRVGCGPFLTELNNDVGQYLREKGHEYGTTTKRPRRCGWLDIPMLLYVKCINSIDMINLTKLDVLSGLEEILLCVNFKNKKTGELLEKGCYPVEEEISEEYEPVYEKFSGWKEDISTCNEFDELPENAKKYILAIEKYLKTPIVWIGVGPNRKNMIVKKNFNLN

Question: How did the IC50 [1] turn out when `O=c1[nH]c2ccc(Cl)cc2c(NC2CN3CCC2CC3)c1-c1nc2ccccc2[nH]1` (stereo unspecified) [CHIR-124] was run?
Answer: > 20 µM

Question: And the IC50 [2]?
Answer: > 20 µM

Question: And the IC50 [3]?
Answer: > 20 µM

Question: And the IC50 [4]?
Answer: > 20 µM

Question: And the IC50 [5]?
Answer: > 20 µM

Question: And the IC50 [6]?
Answer: > 20 µM

Question: And the IC50 [7]?
Answer: 2950 nM

Question: And the IC50 [8]?
Answer: > 20 µM

Question: What about the IC50 [9] of the same molecule?
Answer: > 20 µM

Question: And the IC50 [10]?
Answer: > 20 µM

Question: What about the IC50 [11] of the same molecule?
Answer: > 20 µM

Question: What about the IC50 [12] of the same molecule?
Answer: > 20 µM

Question: And the IC50 [13]?
Answer: > 20 µM

Question: And the IC50 [14]?
Answer: > 20 µM

Question: And the IC50 [15]?
Answer: > 20 µM

Question: And the IC50 [16]?
Answer: > 20 µM

Question: And the IC50 [17]?
Answer: > 20 µM

Question: What about the IC50 [18] of the same molecule?
Answer: > 20 µM

Question: What about the IC50 [19] of the same molecule?
Answer: > 20 µM

Question: And the IC50 [20]?
Answer: > 20 µM

Question: And the IC50 [21]?
Answer: > 20 µM

Question: What about the IC50 [22] of the same molecule?
Answer: > 20 µM

Question: What about the IC50 [23] of the same molecule?
Answer: > 20 µM

Question: And the IC50 [24]?
Answer: > 20 µM

Question: What about the IC50 [25] of the same molecule?
Answer: > 20 µM

Question: What about the IC50 [26] of the same molecule?
Answer: > 20 µM

Question: And the IC50 [27]?
Answer: > 20 µM

Question: And the IC50 [28]?
Answer: > 20 µM

Question: What about the IC50 [29] of the same molecule?
Answer: > 20 µM

Question: And the IC50 [30]?
Answer: > 20 µM

Question: What about the IC50 [31] of the same molecule?
Answer: > 20 µM

Question: What about the IC50 [32] of the same molecule?
Answer: > 20 µM

Question: And the IC50 [33]?
Answer: > 20 µM

Question: What about the IC50 [34] of the same molecule?
Answer: > 20 µM

Question: What about the IC50 [35] of the same molecule?
Answer: > 20 µM

Question: What about the IC50 [36] of the same molecule?
Answer: > 20 µM

Question: And the IC50 [37]?
Answer: > 20 µM

Question: And the IC50 [38]?
Answer: > 20 µM

Question: And the IC50 [39]?
Answer: > 20 µM

Question: And the IC50 [40]?
Answer: > 20 µM

Question: And the IC50 [41]?
Answer: > 20 µM

Question: What about the IC50 [42] of the same molecule?
Answer: > 20 µM

Question: And the IC50 [43]?
Answer: > 20 µM

Question: What about the IC50 [44] of the same molecule?
Answer: > 20 µM

Question: What about the IC50 [45] of the same molecule?
Answer: > 20 µM

Question: And the IC50 [46]?
Answer: > 20 µM

Question: And the IC50 [47]?
Answer: > 20 µM

Question: What about the IC50 [48] of the same molecule?
Answer: > 20 µM

Question: And the IC50 [49]?
Answer: > 20 µM

Question: And the IC50 [50]?
Answer: > 20 µM

Question: And the IC50 [51]?
Answer: > 20 µM

From the supplement of paper PMC13386468
